From PubChem BioAssay (NCI)
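Results reflect a 48-hour exposure of cells in 96-well plates to compound at five concentrations. At the GI50, growth is halved. TGI: total growth inhibition.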

Assays:
Assay in all cases: NCI tumour cell line growth inhibition, 48 h
[1] = system: A549 NSCLC
[2] = system: RPMI-8226 leukemia
[3] = system: HCT-15 colon
[4] = system: DU-145 prostate
[5] = system: UO-31 renal
[6] = system: MDA-MB-435
[7] = system: NCI/ADR-RES ovarian
[8] = system: MCF7 breast
[9] = system: K-562 leukemia
[10] = system: SK-OV-3 ovarian
[11] = system: MOLT-4 leukemia
[12] = system: ACHN renal
[13] = system: HOP-92 NSCLC
[14] = system: LOX IMVI melanoma
[15] = system: NCI-H522 lung
[16] = system: OVCAR-5 ovarian
[17] = system: PC-3 prostate
[18] = system: KM12 colon
[19] = system: COLO 205 colon
[20] = system: SF-295 CNS
[21] = system: M14 melanoma
[22] = system: A498 renal
[23] = system: U251 CNS
[24] = system: NCI-H226 lung
[25] = system: MDA-MB-231 breast
[26] = system: NCI-H460 lung
[27] = system: HS 578T breast
[28] = system: SF-268 CNS
[29] = system: HCT-116 colon
[30] = system: HOP-62 NSCLC
[31] = system: OVCAR-4 ovarian
[32] = system: UACC-62 melanoma
[33] = system: SK-MEL-5 melanoma
[34] = system: NCI-H23 lung
[35] = system: CCRF-CEM leukemia
[36] = system: HCC-2998 colon
[37] = system: SW-620 colon
[38] = system: HL-60(TB) leukemia
[39] = system: OVCAR-8 ovarian
[40] = system: EKVX NSCLC
[41] = system: T-47D breast
[42] = system: 786-0 renal
[43] = system: SF-539 CNS
[44] = system: IGROV1 ovarian
[45] = system: MALME-3M melanoma
[46] = system: RXF 393 renal
[47] = system: SK-MEL-28 melanoma
[48] = system: HT29 colon
[49] = system: SR leukemia
[50] = system: UACC-257 melanoma
[51] = system: SK-MEL-2 melanoma
[52] = system: OVCAR-3 ovarian
[53] = system: SNB-19 CNS
[54] = system: TK-10 renal
[55] = system: CAKI-1 renal
[56] = system: SNB-75 CNS
[57] = system: BT-549 breast
[58] = system: SN12C renal

CCOC(=O)/C=C/c1cc2cc(-c3csc4ccccc34)ccc2[nH]1
GI50 [1]: 4.39 µM
TGI [1]: 18.1 µM
GI50 [2]: 2.87 µM
TGI [2]: 12.3 µM
GI50 [3]: 3.59 µM
TGI [3]: 15.8 µM
GI50 [4]: 4.83 µM
TGI [4]: 16.6 µM
GI50 [5]: 4.94 µM
TGI [5]: 19.1 µM
GI50 [6]: 1.91 µM
TGI [6]: 4.73 µM
GI50 [7]: 10 µM
TGI [7]: 55.3 µM
GI50 [8]: 3.34 µM
TGI [8]: 15.3 µM
GI50 [9]: 2.09 µM
TGI [9]: 10.3 µM
GI50 [10]: 15.2 µM
TGI [10]: 28.7 µM
GI50 [11]: 2.44 µM
TGI [11]: 10.4 µM
GI50 [12]: 7.15 µM
TGI [12]: 20.1 µM
GI50 [13]: 10.7 µM
TGI [13]: 29.5 µM
GI50 [14]: 5 µM
TGI [14]: 18.9 µM
GI50 [15]: 4.19 µM
TGI [15]: 17 µM
GI50 [16]: 21.6 µM
TGI [16]: 42.6 µM
GI50 [17]: 3.42 µM
TGI [17]: 13.8 µM
GI50 [18]: 2.67 µM
TGI [18]: 7.93 µM
GI50 [19]: 7.16 µM
TGI [19]: 21.3 µM
GI50 [20]: 4.11 µM
TGI [20]: 16 µM
GI50 [21]: 5.42 µM
TGI [21]: 22.8 µM
GI50 [22]: 12 µM
TGI [22]: 24.6 µM
GI50 [23]: 5.49 µM
TGI [23]: 18.8 µM
GI50 [24]: 10.6 µM
TGI [24]: 32.7 µM
GI50 [25]: 5.26 µM
TGI [25]: 18.2 µM
GI50 [26]: 15.5 µM
TGI [26]: 31.3 µM
GI50 [27]: 5.07 µM
TGI [27]: 22.2 µM
GI50 [28]: 11 µM
TGI [28]: 26.6 µM
GI50 [29]: 2.96 µM
TGI [29]: 31.4 µM
GI50 [30]: 5.71 µM
TGI [30]: 24.4 µM
GI50 [31]: 7.1 µM
TGI [31]: 19.8 µM
GI50 [32]: 6.76 µM
TGI [32]: 19.6 µM
GI50 [33]: 4.52 µM
TGI [33]: 16.6 µM
GI50 [34]: 18.3 µM
TGI [34]: 47.8 µM
GI50 [35]: 3.04 µM
TGI [35]: 11.4 µM
GI50 [36]: 14.4 µM
TGI [36]: 30.2 µM
GI50 [37]: 3.54 µM
TGI [37]: 14.1 µM
GI50 [38]: 2.43 µM
TGI [38]: 6.57 µM
GI50 [39]: 3.79 µM
TGI [39]: 13.7 µM
GI50 [40]: 7.36 µM
TGI [40]: 20.2 µM
GI50 [41]: 4.45 µM
TGI [41]: 18 µM
GI50 [42]: 11.3 µM
TGI [42]: 26.9 µM
GI50 [43]: 14 µM
TGI [43]: 27.1 µM
GI50 [44]: 4.62 µM
TGI [44]: 17.4 µM
GI50 [45]: 6.81 µM
TGI [45]: 20.5 µM
GI50 [46]: 3.86 µM
GI50 [47]: 10.1 µM
TGI [47]: 21.6 µM
GI50 [48]: 3.39 µM
TGI [48]: 11.6 µM
GI50 [49]: 1.98 µM
TGI [49]: 8.04 µM
GI50 [50]: 12.6 µM
TGI [50]: 25.2 µM
GI50 [51]: 4.92 µM
TGI [51]: 17.3 µM
GI50 [52]: 5.34 µM
TGI [52]: 17.1 µM
GI50 [53]: 16 µM
TGI [53]: 33.5 µM
GI50 [54]: 14.4 µM
TGI [54]: 29 µM
GI50 [55]: 3.13 µM
TGI [55]: 15.2 µM
GI50 [56]: 6.14 µM
TGI [56]: 20.8 µM

COc1cccc2c1-c1c(c3ccc([N+](=O)[O-])cc3c(=O)n1CCCCl)C2=O
GI50 [1]: > 50 µM
TGI [1]: > 50 µM
GI50 [2]: 3.69 µM
TGI [2]: > 50 µM
GI50 [5]: 1.73 µM
TGI [5]: > 50 µM
GI50 [57]: 17.1 µM
TGI [57]: > 50 µM
GI50 [6]: > 50 µM
TGI [6]: > 50 µM
GI50 [7]: > 50 µM
TGI [7]: > 50 µM
GI50 [8]: 0.0614 µM
TGI [8]: 0.327 µM
GI50 [9]: > 50 µM
TGI [9]: > 50 µM
GI50 [10]: 21.1 µM
TGI [10]: > 50 µM
GI50 [58]: 15.8 µM
TGI [58]: > 50 µM
GI50 [11]: 2.23 µM
TGI [11]: > 50 µM
GI50 [14]: 1.23 µM
TGI [14]: > 50 µM
GI50 [15]: 0.685 µM
TGI [15]: > 50 µM
GI50 [16]: > 50 µM
TGI [16]: > 50 µM
GI50 [17]: 7.37 µM
TGI [17]: > 50 µM
GI50 [18]: > 50 µM
TGI [18]: > 50 µM
GI50 [19]: > 50 µM
TGI [19]: > 50 µM
GI50 [20]: 1.82 µM
TGI [20]: > 50 µM
GI50 [21]: 8.57 µM
TGI [21]: > 50 µM
GI50 [22]: 17.4 µM
TGI [22]: > 50 µM
GI50 [24]: 5.82 µM
TGI [24]: 41.5 µM
GI50 [25]: 29.5 µM
TGI [25]: > 50 µM
GI50 [26]: 0.972 µM
TGI [26]: > 50 µM
GI50 [27]: 25.2 µM
TGI [27]: > 50 µM
GI50 [28]: 0.00993 µM
TGI [28]: 3.96 µM
GI50 [29]: 2.48 µM
TGI [29]: > 50 µM
GI50 [30]: 5.46 µM
TGI [30]: 15.9 µM
GI50 [32]: 2.42 µM
TGI [32]: 18.8 µM
GI50 [33]: 0.791 µM
TGI [33]: > 50 µM
GI50 [34]: 24.4 µM
TGI [34]: > 50 µM
GI50 [35]: 1.5 µM
TGI [35]: > 50 µM
GI50 [37]: 0.286 µM
TGI [37]: > 50 µM
GI50 [39]: > 50 µM
TGI [39]: > 50 µM
GI50 [40]: > 50 µM
TGI [40]: > 50 µM
GI50 [41]: > 50 µM
TGI [41]: > 50 µM
GI50 [42]: 6.4 µM
TGI [42]: 17.4 µM
GI50 [45]: 7.06 µM
TGI [45]: > 50 µM
GI50 [47]: > 50 µM
TGI [47]: > 50 µM
GI50 [48]: > 50 µM
TGI [48]: > 50 µM
GI50 [49]: 0.202 µM
TGI [49]: > 50 µM
GI50 [50]: > 50 µM
TGI [50]: > 50 µM
GI50 [51]: 48.8 µM
TGI [51]: > 50 µM
GI50 [52]: > 50 µM
TGI [52]: > 50 µM
GI50 [53]: 12.4 µM
TGI [53]: > 50 µM
GI50 [54]: 11.8 µM
TGI [54]: 38.9 µM
GI50 [55]: 1.13 µM
TGI [55]: 24.1 µM
GI50 [56]: 11.6 µM
TGI [56]: 32.3 µM
